The values that follow come from US10603701B2, “Bioremediation of 1,4-dioxane and chlorinated aliphatic hydrocarbons by propanotrophic bacteria” (New Jersey Institute of Technology, priority 2018, dated 2020).

The subject of one assay is Mycobacterium sp. DT1. The assay can be described thus: Concurrent biodegradation of dioxane and TCE by DT1 in simulated microcosms. The assay is classed as cell-based. As to the method: Concurrent biodegradation of dioxane and TCE by Mycobacterium sp. DT1. To evaluate the performance of DT1 in the removal of dioxane and TCE when both compounds are concurrently present, simulated microcosms were prepared with DT1 inoculum in BSM medium and dosed with dioxane and TCE. Propane was used as the primary substrate. […] After a short lag time (1 d), all the substrates, i.e. propane, dioxane, and TCE, were degraded synchronically. At the end of day 2, the initial 71.1, 20.2, and 2.15 mg/L of propane, dioxane, and TCE were degraded to 25.8, 11.3, and 1.59 mg/L, respectively. TCE was degraded to below the MDL of the GC-FID methods employed (i.e., 0.01 mg/L), and 85% of dioxane was removed from the simulated microcosm after 4 days incubation.

Assay [1] relates to Azoarcus sp. DD4. Briefly: Inhibition of 1,1-DCE on dioxane degradation by DD4 resting cells. The class given is cell-based. As to conditions: dioxane 20.9±0.3 mg/L and 1,1-DCE 5.0±0.4 mg/L, 24 hr. As to the method: Inhibition of 1,1-DCE on dioxane degradation by Azoarcus sp. DD4. Though DD4 can degrade both dioxane and 1,1-DCE, the effect(s) of 1,1-DCE on dioxane biodegradation was investigated. DD4 cells were harvested at the exponential growth phase and washed by NMS medium three times. Three treatments were prepared with the resting cells by the exposure of dioxane (19.7±1.2 mg/L), 1,1-DCE (5.5±0.1 mg/L), and both dioxane (20.9±0.3 mg/L) and 1,1-DCE (5.0±0.4 mg/L). Concentrations of 1,1-DCE and dioxane were monitored using GC at selected time intervals over 24 hr. Abiotic controls were treated identically. All experiments were performed in duplicate vials. […] Thus, it is very plausible that DD4 can resume its capability of degrading dioxane once 1,1-DCE is depleted by DD4.

Assay [2] has as its system Azoarcus sp. DD4. The assay can be described thus: Biodegradation of concurrent dioxane and 1,1-DCE by DD4 in microcosms. The class given is cell-based. As to conditions: for effect of presence on utilization of 1-propanol and proliferation of DD4: 1-propanol as primary substrate. The procedure: Biodegradation of concurrent dioxane and 1,1-DCE by Azoarcus sp. DD4. To evaluate the performance of DD4 in removing dioxane and 1,1-DCE when both compounds are concurrently present, microcosms were prepared with DD4 inoculum in NMS medium and dosed with dioxane and 1,1-DCE. Two primary substrates were used, including propane and 1-propanol.

Assay [3] concerns Psuedonocardia dioxanivorans CB1190. Conditions: previous studies; cited from earlier work.
For assay [4], the system named is Azoarcus sp. DD4. Briefly: Inhibition of dioxane, 1,1-DCE and propane degradation by acetylene (DD4 resting cells). The class given is cell-based. Conditions: resting cells pre-incubated with acetylene 10% headspace volume, 20 minutes. The procedure: Inhibition of dioxane, 1,1-DCE, and propane degradation by acetylene. Acetylene is an irreversible suicide substrate that inactivates bacterial monooxygenases (MOs). Prior S. and Dalton H, 1985. Acetylene as a suicide substrate and active site probe for methane monooxygenase from Methylococcus capsulatus (Bath). FEMS Microbiology Letters. 29, 105-109. […] After being washed with NMS three times, resting cells were pre-incubated with acetylene (10% headspace volume) for 20 minutes prior to the amendment of dioxane, 1,1-DCE, or propane. The effect of the inhibitor acetylene was studied by monitoring the depletion of dioxane, 1,1-DCE, and propane over time in the presence or absence of acetylene. Duplicate abiotic controls were prepared in parallel. The propane and dioxane depletion were monitored over time by GC analysis.

Assay [5] relates to Azoarcus sp. DD4. Conditions: propane as substrate. As to the method: DD4's adaptability to pH, salinity and temperature. To identify its optimum growth conditions, DD4 was cultured with propane as the substrate under different pHs, temperatures, and salinities. The pHs of NMS medium were adjusted to 4.0, 5.0, 6.0, 7.0, 8.0, 9.0 and 10.0 with appropriate amount of 1 M HCl or 1 M NaOH. The NMS mediums were cultured under 10° C., 15° C., 20° C., 25° C., 30° C., 35° C., and 40° C. The salinities of NMS medium were adjusted to 0%, 0.5%, 1.0%, 1.5%, 2.0%, 2.5%, 3.0%, and 3.5% (w/v) with NaCl. 6 mL of propane (equivalent to 6% of the head space volume) was injected into the sealed bottles in all these assays. DD4 was inoculated at the initial concentration of 0.05 measured as OD600 and cultured under 30° C., 150 rpm for 72 h while shaking. The optical density (OD) values of bacterial suspensions were determined with spectrophotometer under 600 nm.

Assay [6] has as its system Azoarcus sp. DD4. Briefly: Propane and dioxane degradation by DD4 with or without ATU. The assay is classed as cell-based. As to conditions: propane as primary substrate; dioxane degradation thus prolonged. The procedure:
Allylthiourea (ATU) was reported to inhibit the particulate MOs involved in nitrification and alkane degradation in various bacteria. To exploit the effects ofprm-deletion on the propane and dioxane degradation and further to distinguish the soluble versus particulate MO category the DD4 dioxane degrader belongs to, the wild-type and prm-deleted DD4 strains were cultured with and without the presence of ATU using propane as a primary substrate to cometabolize dioxane. Duplicate abiotic controls were prepared in parallel. The propane and dioxane depletion were monitored over time by GC analysis. Now referring to FIGS. 11a and 11b, prmADBC is only partially correlated with the propane degradation but not associated with the dioxane cometabolism.

On to `ClC=C(Cl)Cl` [TCE, trichloroethene], for which, in the assay on Mycobacterium sp. DT1 (DT1, BSM, propane as primary substrate), the “effect of presence on degradation of dioxane or consumption of propane for growth” value is recorded as “no significant inhibition”.

For the molecule `C=C(Cl)Cl` [1,1-DCE, 1,1-dichloroethylene], the “effect of presence on dioxane degradation by DD4 resting cells” value in the assay with Azoarcus sp. DD4 [1] is “greatly inhibited”. Besides, the “effect of presence on utilization of 1-propanol and proliferation of DD4” value in the assay on Azoarcus sp. DD4 [2] is “did not inhibit”. For the same molecule, the “effect of presence on degradation of dioxane and consumption of propane for growth” value in the assay with Azoarcus sp. DD4 [2] (propane as primary substrate, NMS microcosm) is on record as “significantly inhibited”. The “effect of exposure on dioxane degradation by CB1190” value in assay [3] is “significantly prohibit”.

Consider `C#C` [acetylene], for which, in the assay on Azoarcus sp. DD4 [4], the “effect of exposure on degradation of propane, 1,1-DCE and dioxane” value is recorded as “completely prohibited”.

Turning to `[Cl-].[Na+]` [NaCl], the “optimal growth parameter, NaCl” value with Azoarcus sp. DD4 [5] (72 h, OD600, w/v) is reported as 0-1%. Also, in the assay on Azoarcus sp. DD4 [5] (w/v), the “NaCl concentration under which DD4 could survive and maintain growth and cometabolic activity toward dioxane” value is 0.0-3.0%.

`C1COCCO1` [dioxane, 1,4-dioxane]: the “effect on 1,1-DCE degradation by DD4 resting cells” value in the assay on Azoarcus sp. DD4 [1] was “no inhibitory effects”. The “effect of presence on utilization of 1-propanol and proliferation of DD4” value with Azoarcus sp. DD4 [2] was “did not inhibit”. In addition, in the assay on Mycobacterium sp. DT1 (initial 20.2 mg/L), the “dioxane removed after 4 days incubation” value is given as 85%.

As for `C=CCNC(N)=S` [ATU, Allylthiourea], the “effect on propane consumption” value with Azoarcus sp. DD4 [6] was “partially inhibit”.
